Legend:
[1] = target: T1, AhR (Homo sapiens, UniProt P35869); experiment: CYP1A1-bla LS-180 AhR agonist assay; type: cell-based; conditions: CYP1A1-bla LS-180 cells, ~20 hrs
T1 construct: LS-180 cells stably transfected with a CYP1A1 promoter-linked beta-lactamase gene reporter construct; endogenous in cells; host or cells: CYP1A1-bla LS-180 cells
T1 sequence (P35869 11-848): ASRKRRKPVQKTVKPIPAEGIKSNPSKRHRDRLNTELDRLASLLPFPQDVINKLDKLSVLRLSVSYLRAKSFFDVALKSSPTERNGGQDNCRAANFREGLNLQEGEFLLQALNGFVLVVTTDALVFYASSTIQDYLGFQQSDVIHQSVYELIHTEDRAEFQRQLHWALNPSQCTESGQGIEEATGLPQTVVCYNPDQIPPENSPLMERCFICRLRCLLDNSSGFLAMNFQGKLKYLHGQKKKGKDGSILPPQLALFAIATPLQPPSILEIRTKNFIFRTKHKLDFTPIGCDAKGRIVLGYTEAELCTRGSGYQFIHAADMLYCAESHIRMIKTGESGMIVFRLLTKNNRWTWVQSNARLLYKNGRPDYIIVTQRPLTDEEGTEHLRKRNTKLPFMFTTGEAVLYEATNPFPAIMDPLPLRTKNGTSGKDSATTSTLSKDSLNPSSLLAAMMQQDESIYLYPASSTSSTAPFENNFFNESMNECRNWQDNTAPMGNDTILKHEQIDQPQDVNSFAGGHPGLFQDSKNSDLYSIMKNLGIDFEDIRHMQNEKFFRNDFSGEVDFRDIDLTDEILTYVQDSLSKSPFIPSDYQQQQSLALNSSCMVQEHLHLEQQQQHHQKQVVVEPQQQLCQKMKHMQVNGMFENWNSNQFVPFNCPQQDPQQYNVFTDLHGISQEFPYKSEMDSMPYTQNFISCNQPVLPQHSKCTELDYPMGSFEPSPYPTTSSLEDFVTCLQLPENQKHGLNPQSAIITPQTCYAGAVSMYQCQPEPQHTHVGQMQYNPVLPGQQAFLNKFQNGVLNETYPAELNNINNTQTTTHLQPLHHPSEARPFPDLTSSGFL
Method: LS-180 cells stably transfected with a CYP1A1 promoter-linked beta-lactamase gene reporter construct (termed CYP1A1-bla LS-180 cells) were used to characterize the ability of compounds to activate AhR. In brief, AhR activity was measured using the LiveBLAzer assay kit which utilizes a beta lactamase (bla) reporter gene downstream of CYP1A1 promoter, which metabolizes its substrate to give a fluorescent readout. For the agonist assay, CYP1A1-bla LS-180 cells were treated with increasing concentrations of compound over a 100,000-fold concentration range.
CYP1A1-bla LS-180 cells in exponential growth phase were washed twice with DPBS then seeded into 96-well microplates (50,000 cells/well) and allowed to adhere. […] The LiveBLAzer FRET B/G β-lactamase substrate was added in the final hour of incubation and resulting blue/green fluorescence was measured using a 96-well microplate reader.
AhR activity was measured as a function of beta-lactamase expression using a fluorescence resonance energy transfer-based readout. TCDD and FICZ were used as controls to validate the system.

[2] = test system: primary human cell culture platforms; experiment: BioMAP Diversity Plus profiling; type: cell-based; conditions: profiles overlaid
[3] = target: T1, AhR; conditions: value reported by Invitrogen; cited from earlier work
[4] = test system: IL-17A; experiment: CD4+ T cell IL17 assay; type: cell-based, human
Method: Therefore, compounds are evaluated for their ability to reduce IL-17 production from CD4+ T cells stimulated under Th17-skewing conditions. Cryopreserved human CD4^+ T cells (AllCells, LLC, Alameda, CA and Stemcell Technologies, Inc. Vancouver, Canada) were differentiated to the Th17 subtype by culturing for 5 days in CD3-coated tissue culture plates (2 μg/mL) in Iscove's modified Dulbecco's medium (IMDM) containing 10% HI-FBS, 55 μM 2-mercaptoethanol and soluble anti-CD28 (3 μg/mL) in the presence of a Th17 skewing cocktail, [IL-1β (10 ng/mL), IL-6 (30 ng/mL), TGFβ (0.5 ng/mL), IL-21 (10 ng/mL), IL-23 (10 ng/mL), anti-IFNγ (10 μg/mL) and anti-IL-4 (10 μg/mL)] in the presence or absence of serially diluted compounds. Secretion of IL-17 from polarized CD4+ T-cells was measured in the culture media using an MSD (Meso Scale Discovery) detection system following 5 day exposure toTh17 polarization reagents with and without compounds.

[5] = test system: Nrf2; experiment: luciferase-based reporter assay for NQO1 gene expression; type: cell-based
[6] = target: T2, CB2 (Homo sapiens, UniProt P34972); experiment: fluorescence-based agonist assay using genetically modified yeast; type: cell-based; conditions: read-out: CB2 pEC50 (converted)
T2 construct: expressed in transfected cells

[7] = oxygen radical absorbance capacity (ORAC) test; type: biochemical; conditions: Trolox Equivalent Values

T2 sequence (P34972 whole entry, species assumed): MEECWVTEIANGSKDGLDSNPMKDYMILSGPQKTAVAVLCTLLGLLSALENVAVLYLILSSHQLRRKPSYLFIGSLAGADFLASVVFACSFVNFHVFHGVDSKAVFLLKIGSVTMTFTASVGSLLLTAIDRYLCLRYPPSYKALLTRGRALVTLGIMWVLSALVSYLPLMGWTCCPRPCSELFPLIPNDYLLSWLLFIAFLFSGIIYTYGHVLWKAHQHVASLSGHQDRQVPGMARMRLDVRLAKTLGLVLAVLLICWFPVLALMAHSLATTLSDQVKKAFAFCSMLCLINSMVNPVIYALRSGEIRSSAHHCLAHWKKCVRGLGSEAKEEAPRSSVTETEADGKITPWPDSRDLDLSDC

Compound | pEC50 [1] | sIL-17 in BioMAP [2] | pEC50 reported by Invitrogen [3] | IC50 ([4]; T-cell, MSD-based readout of secreted IL-17A from Th17-polarized primary human CD4+ peripheral blood T cells, read-out: IL-17A pIC50 (converted)) [nM] | IL-17A production ([4]; Th17-skewing conditions, applied throughout culture) | Nrf2 pEC50 [5] | EC50 [6] [nM] | Hydroxyl-radical [7] [TEV] | Peroxyl radical-hydro [7] [TEV] | Peroxyl radical-lipo [7] [TEV] | Peroxynitrite [7] [TEV] | Singlet oxygen [7] [TEV] | Superoxide anion [7] [TEV] | Total ORAC value [7] [TEV]
6-formylindolo(3,2-b)carbazole [FICZ, reference compound] | 6.82 | not seen |  |  |  |  |  |  |  |  |  |  |  | 
Clc1cc2c(cc1Cl)Oc1cc(Cl)c(Cl)cc1O2 [TCDD] | 10.34 |  | 9.70 |  |  |  |  |  |  |  |  |  |  | 
CC(C)c1c(O)cc(/C=C/c2ccccc2)cc1O [tapinarof] |  | not seen |  | 3.16 | suppression of IL-17A | pEC50 = 7.6 | 158 | 1067 | 4663 | 2164 | 140 | 3581 | 11241 | 22855

Source: patent US20220017468A1, “ISOQUINOLINE COMPOUNDS AND THEIR USE IN TREATING AhR IMBALANCE” (Dermavant Sciences GmbH, priority 2020, published 2022)
